In US9408828B2, “(+)-3′-angeloyloxy-4′-keto-3′,4′-dihydroseselin for treating inflammation” (Hong Kong Baptist University, priority 2014, dated 2016):

Key:
IκB-α = assay: Western blot of IκB-α degradation in LPS-stimulated RAW-Blue cells; type: cell-based, murine; conditions: LPS 1 μg/mL, Pd-Ib 5, 10, 20 μg/mL, 20 h; compared to LPS-stimulated macrophage
Procedure: Data are derived from three independent experiments and presented as mean±SEM. ^#Compared with control group. *P<0.05 is compared with LPS-alone group.
(§1) After Raw-Blue cells are treated with LPS and Pd-Ib, whole cell extract is prepared with lysis buffer [1% Triton X-100, 0.1% SDS, 0.5% deoxycholate, 1 mM EDTA, 20 mM Tris (pH 7.4), 150 mM NaCl, 10 mM NaF, 1 mM Na3VO4, 0.1 mM phenylmethylsulfonyl fluoride and one protease inhibitor cocktail tablet (Roche, USA)]. Total protein concentration is measured using a protein assay kit, followed by centrifugation at 13,500 rpm for 15 minutes at 4° C., then 10-25 μg of protein from the supernatants is then separated on 10% sodium dodecylsulphate-polyacrylamide gel (SDS-PAGE) and transferred on to polyvinylidene difluoride membranes. After blocking with 5% skim milk powder in Tris-buffered saline-Tween (TBST; 50 mM Tris, 150 mM NaCl, pH 7.4; 0.01% Tween-20) for 1 hour at room temperature, the membrane is then incubated with primary antibody (1:5,000 dilution) in 5% skim milk in TBST overnight at 4° C. […] The membrane is rewashed (TBST; 3×10 min), and the immune-reactive proteins are detected by enhanced chemiluminescence using X-ray film and ECL reagent. The protein bands are quantified by measuring the relative intensity compared to the control using Image J Software (version 4.1.7, NIH, USA).

iNOS = assay: Western blot of iNOS protein in LPS-stimulated RAW-Blue cells; type: cell-based, murine; conditions: LPS 1 μg/mL, 5, 10, 20 μg/mL, 20 h
Procedure: (§2) Data are derived from three independent experiments and presented as mean±SEM. ^#Compared with control group. *P<0.05, **P<0.01 and ***P<0.001 are compared with LPS-alone group.
as §1

COX-2 = assay: Western blot of COX-2 protein in LPS-stimulated RAW-Blue cells; type: cell-based, murine; conditions: LPS 1 μg/mL, 5, 10, 20 μg/mL, 20 h
Procedure: as §2, §1

TNF-α [1] = assay: Real-time PCR of TNF-α mRNA in LPS-stimulated RAW-Blue cells; type: cell-based, murine; conditions: LPS 1 μg/mL, 5, 10, 20 μg/mL, 20 hours
Procedure: (§3) After macrophages are treated with 1 μg/mL of LPS in absence or presence various concentrations of Pd-Ib (5, 10, 20 μg/mL) for 20 hours, the mRNA levels of iNOS (A), TNF-α (B) and IL-1β (C) are determined by real time PCR, while the production of NO (D) is determined by Griess reagent. Data are derived from three independent experiments and presented as mean±SEM, “con” stands for the vehicle control group. ^#Compared with control group. *P<0.05, **P<0.01 and ***P<0.001 are compared with LPS-alone group.
Raw-Blue cells are plated at 20×10^5 cells/well in 12-well plate. After 24 hours of incubation, cells are pretreated with various concentrations (5-20 μg/mL) of Pd-Ib for 2 hours, followed by co-culturing with LPS (1 μg/mL) for 20 hours. Total RNA of Raw-Blue cells is extracted by Trizol reagent. Two micrograms (2 μg) of total RNA are reverse-transcribed with RT master mix to obtain cDNA. Real-time PCR is performed in a ViiA7 real-time PCR instrument (Applied Biosystems, Life Technologies, CA, USA) with the SYBR Green kit. A melting curve analysis is carried out after amplification to verify the accuracy of the amplicon. The comparative cycle of threshold (ΔΔCT) method of relative quantification is used to determine the fold-change in expression. Primer sequences for mRNA analysis of IL-1β, TNF-α, iNOS and β-Actin are described in Table 1.

[2] = tested on: nitric oxide (NO) production in LPS-stimulated RAW-Blue cells; assay: Nitric oxide production determination (Griess reagent); type: cell-based, murine; conditions: Mus musculus, LPS 1 μg/mL 20 hours
Procedure: as §3
Nitric oxide (NO) production is indirectly assessed by measuring the nitrite levels in the cultured medium determined by a colorimetric method based on the Griess reagent and sodium nitrite as a standard substance. The cells are pretreated with various concentrations of Pd-Ib (5-20 μg/mL). Two hours later, cells are incubated for another 20 hours in the presence of LPS (1 μg/mL) at 37° C. Then, 100 μL of each supernatant is mixed with the equal volume of Griess reagent. The samples are incubated at room temperature for 15 min. The optical densities are measured at 540 nm with a micro-plate reader and nitrite concentration is determined using a standard curve generated with known concentrations of sodium nitrite.

TNF-α [3] = assay: ELISA of TNF-α in colon tissue, DSS-induced colitis; type: in vivo, C57BL/6 mice; conditions: compared with the DSS treatment group
Procedure: (§4) Colon levels of cytokines are assayed using commercially available ELISA kits. Briefly, colon samples are homogenized in phosphate buffer containing 0.05% Tween-20, 0.1 mM phenylmethylsulfonyl fluoride, 0.1 mM benzethonium chloride, 10 mM EDTA, and 20 IU aprotinin A. The homogenates are centrifuged at 16000 g at 4° C. for 15 min, and the supernatants are collected for the determination of levels of the cytokines, IL-6, IL-4, TNF-α, and IFN-γ, according to the manufacturer's protocols. The amount of protein in each sample is measured by the Bradford method, using bovine serum albumin as a standard. The levels of each cytokine are evaluated in each sample and expressed in […].
(§5) Colitis is induced in all groups except the control group. Pd-Ib and sulfasalazine are administered to mice from day 6 to day 12. On day 13, the mice are sacrificed, Data are expressed as mean±SEM, n=8 (*p<0.05, **p<0.01, ***p<0.001, compared with DSS model group).

IFN-γ = assay: ELISA of IFN-γ in colon tissue, DSS-induced colitis; type: in vivo, C57BL/6 mice; conditions: compared with the DSS treatment group
Procedure: as §4, §5

IL-6 = assay: ELISA of IL-6 in colon tissue, DSS-induced colitis; type: in vivo, C57BL/6 mice; conditions: compared with the DSS treatment group
Procedure: as §4, §5

IL-4 = assay: ELISA of IL-4 in colon tissue, DSS-induced colitis; type: in vivo, C57BL/6 mice; conditions: compared with the DSS treatment group; increase in IL-4
Procedure: as §4, §5

For `C/C=C(\C)C(=O)OC1C(=O)c2c(ccc3ccc(=O)oc23)OC1(C)C` (single isomer, unassigned; (+)) [Pd-Ib, (+)-3′-Angeloyloxy-4′-keto-3′,4′-dihydroseselin], the IκB-α degradation (IκB-α) was “inhibits IκB-α degradation in a dose-dependent manner”, the iNOS protein level (iNOS) was “strongly down-regulates” and the COX-2 protein level (COX-2) was “strongly down-regulates”. For the same compound, the “mRNA expression of TNF-α” value (TNF-α [1]) was “inhibit the mRNA expressions of TNF-α and IL-1β in a dose-dependent manner”, the inhibition at 5 µg/mL ([2]; 5 μg/mL) was 17.6 ± 2.96% and the inhibition at 10 µg/mL ([2]; 10 μg/mL) was 29.8 ± 1.34%. The inhibition at 20 µg/mL ([2]; 20 μg/mL) was 55.5 ± 1.15%, the “production of TNF-α in colon tissue” value (TNF-α [3]) was “greatly reduces the production” and the “production of IFN-γ in colon tissue” value (IFN-γ) was “greatly reduces the production”. For the same compound, the “production of IL-6 in colon tissue” value (IL-6) was “greatly reduces the production” and the “production of IL-4 in colon tissue” value (IL-4) was “significant effect on the production of IL-4 in a dose-dependent manner”.
